Results reported in ChEMBL document CHEMBL1287683, “Highly brominated metabolites from marine red alga Laurencia similis inhibit protein tyrosine phosphatase 1B” (Bioorg Med Chem Lett, 2010).

target: T1, Tyrosine-protein phosphatase non-receptor type 1 (Homo sapiens, UniProt P18031); experiment: Inhibition of protein tyrosine phosphatase 1B
T1 sequence (P18031 whole entry): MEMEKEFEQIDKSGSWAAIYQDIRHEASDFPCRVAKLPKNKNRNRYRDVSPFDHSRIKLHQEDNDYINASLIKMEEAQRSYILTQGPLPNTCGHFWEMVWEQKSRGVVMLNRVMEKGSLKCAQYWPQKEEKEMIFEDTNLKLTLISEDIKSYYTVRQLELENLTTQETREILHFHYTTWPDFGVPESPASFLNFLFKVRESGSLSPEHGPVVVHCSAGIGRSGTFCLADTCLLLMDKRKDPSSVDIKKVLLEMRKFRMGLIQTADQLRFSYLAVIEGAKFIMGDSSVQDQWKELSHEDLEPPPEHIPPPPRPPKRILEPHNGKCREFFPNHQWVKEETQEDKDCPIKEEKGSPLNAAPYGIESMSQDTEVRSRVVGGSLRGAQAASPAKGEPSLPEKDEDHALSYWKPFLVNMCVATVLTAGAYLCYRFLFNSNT

In order of falling IC50:
1. BrCc1cc(Br)c2cc(NBr)c(Br)c(Br)c2c1  185 µM
2. BrCc1cc2cc(Br)c(NBr)cc2c(Br)c1Br  127 µM
3. BrCc1cc(Br)c2cc(NBr)c(Br)cc2c1Br  118 µM
4. Cc1cc(C)c(Oc2cc(Br)cc(Br)c2Br)c(Br)c1  5.78 µM
5. COc1cc(C(=O)c2c(Br)c(Br)c(OC)c(OC)c2Br)c(Br)c(Br)c1OC  3.82 µM
